Results: patent US20250222009A1, “DINUCLEAR GOLD(I) COMPLEXES FOR TREATING CANCER” (KING FAHD UNIVERSITY OF PETROLEUM AND MINERALS, priority 2024, published 2025)

Experiments:
A549-MCTSs = assay: 3D-A549-MCTS viability (PrestoBlue); assay type: cell-based, human; conditions: 72 h, PrestoBlue, poly-HEMA coated wells
Protocol: To obtain multiple spheroids, 10.0×10^4 A549 cells were seeded in non-adherent conditions on poly-HEMA coated 96 wells (final volume, 200 μL) for four days. After drug treatment (72 h), the cell viability was determined using PrestoBlue Cell Viability Reagent (Thermo Fisher Scientific, Frederick, MD, USA) (See: Casagrande, N.; Celegato, M.; Borghese, C.; Mongiat, M.; Colombatti, A.; Aldinucci, D. Preclinical Activity of the Liposomal Cisplatin Lipoplatin in Ovarian Cancer. Clin Cancer Res 2014, 20, 5496-5506, which is incorporated herein by reference in its entirety).
3D-MCTSs are a model for in vitro drug testing (See: Zanoni, M.; Piccinini, F.; Arienti, C.; Zamagni, A.; Santi, S.; Polico, R.; Bevilacqua, A.; Tesei, A. 3D Tumor Spheroid Models for in Vitro Therapeutic Screening: A Systematic Approach to Enhance the Biological Relevance of Data Obtained. Sci Rep 2016, 6, 19103, which is incorporated herein by reference in its entirety) and to test drug tissue penetration. Thus, the effects of complex 3 in A549-MCTSs were determined by cultivating tumor cells in non-adherent conditions on poly-HEMA coated wells. […] Representative micro-photographs of A549-MCTSs treated with complex 3 (0.3-5 μM) and with cisplatin (15-250 μM) are shown in FIG. 9C.

caspase-3,7 = assay: Caspase-3,7 activation (CaspaTag/FLICA), flow cytometry; assay type: cell-based, human; conditions: A549, 24 h
Protocol: 2.0×10^5 A549 cells were seeded in 6-well plates in a complete medium and treated with the complex 3. Assay results were detected by flow cytometry on a BD FACSCanto II flow cytometer. Data were analyzed using BD FACSDiva v.8.0.1 software (BD Biosciences) unless otherwise indicated. Tumor cells were treated for 72 h with complex 3, then stained for 15 minutes with FITC Annexin-V (Thermo Fisher Scientific) and 7AAD (BD Pharmingen, Milan, Italy). Activated caspase-3,7 was detected using the CaspaTag Caspase-3,7 assay (Merck Millipore) after an incubation of 24 h with complex 3. For B-cell lymphoma/leukemia-2 protein (Bcl-2) and Bcl-2 associated x protein (Bax) analysis, cells were treated for 72 h with C3, then fixed and permeabilized (FIX & PERM Cell Fixation & Cell Permeabilization Kit, Life Technologies). […] The distribution of cells in different cell cycle phases was quantified using ModFit LT 4.0 software (Verity Software House, Topsham, ME, USA) (See: Sulaiman, A. A. A.; Casagrande, N.; Borghese, C.; Corona, G.; Isab, A. A.; Ahmad, S.; Aldinucci, D.; Altaf M. Design, Synthesis, and Preclinical Activity in Ovarian Cancer Models of New Phosphanegold(I)—N-Heterocyclic Carbene Complexes. J Med Chem 2022, 65, 14424-14440, which is incorporated herein by reference in its entirety). […]

For CC(C)c1cccc(C(C)C)c1-n1ccn(-c2c(C(C)C)cccc2C(C)C)[c]1=[Au-][P+](CCNCC[P+]([Au-]=[c]1n(-c2c(C(C)C)cccc2C(C)C)ccn1-c1c(C(C)C)cccc1C(C)C)(C1CCCCC1)C1CCCCC1)(C1CCCCC1)C1CCCCC1 [Complex 3, [(Au(IPr))2(C28H24P2)](PF6)2], which IC50 (A549-MCTSs) is on record?
Its IC50 is 950 nM.

And the “caspase-3,7 activation” value (caspase-3,7)?
Its value is “activated”.
